Data on 23 compounds can be found in ChEMBL document CHEMBL1155460, “Prediction of acetylcholinesterase inhibitors and characterization of correlative molecular descriptors by machine learning methods” (Eur J Med Chem, 2010).

The target in the assay is Acetylcholinesterase (Homo sapiens, UniProt P22303).
Chain of Acetylcholinesterase (P22303 whole entry): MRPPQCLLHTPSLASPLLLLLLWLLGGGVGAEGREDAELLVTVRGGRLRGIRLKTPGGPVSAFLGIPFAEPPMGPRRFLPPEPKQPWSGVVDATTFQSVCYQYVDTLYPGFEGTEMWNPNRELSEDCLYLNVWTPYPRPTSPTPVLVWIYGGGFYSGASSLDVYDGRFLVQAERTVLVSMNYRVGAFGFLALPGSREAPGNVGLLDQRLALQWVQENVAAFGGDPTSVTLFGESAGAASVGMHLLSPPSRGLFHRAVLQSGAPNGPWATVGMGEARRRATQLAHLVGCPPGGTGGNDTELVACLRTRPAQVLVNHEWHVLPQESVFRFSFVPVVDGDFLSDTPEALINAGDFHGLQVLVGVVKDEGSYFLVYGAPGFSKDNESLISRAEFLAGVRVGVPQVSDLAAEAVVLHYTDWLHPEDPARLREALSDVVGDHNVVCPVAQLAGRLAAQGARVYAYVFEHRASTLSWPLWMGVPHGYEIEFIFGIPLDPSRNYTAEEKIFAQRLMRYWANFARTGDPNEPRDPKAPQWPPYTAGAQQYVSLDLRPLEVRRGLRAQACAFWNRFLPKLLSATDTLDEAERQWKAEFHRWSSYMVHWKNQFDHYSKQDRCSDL
In the case of `O=C(Cc1c[nH]c2ccc(Br)cc12)NCCCCCCCNc1c2c(nc3cc(Cl)ccc13)CCCC2`, the IC50 (usually the midpoint of a concentration-inhibition curve) came to 0.6 nM. In other words, the sub-nanomolar range. With `CCCCCCNC(=O)Oc1ccc2c(c1)C1CCN(CCC)C1C2` (stereo not drawn), the IC50 worked out at 546 nM. Against the preceding compound, the IC50 is about 910-fold higher. Consider `Fc1ccc2c(NCCCCCCCNc3c4c(nc5cc(F)ccc35)CCCC4)c3c(nc2c1)CCCC3`, for which it took 0.6 nM to reach half-maximal inhibition (IC50). For `O=C(CCC1CCN(Cc2ccccc2)CC1)c1ccc2c(c1)OCO2` the value was 30 nM; for `Cc1cccc(CN2CCC(CCC(=O)c3ccc4c(c3)CCN4)CC2)c1`, 50 nM. `CCCCCCNC(=O)Oc1cccc(CN(C)CCCCCOc2ccc3c(=O)c4ccccc4oc3c2)c1` registered a half-inhibitory concentration (IC50) of 100 nM. For `CCCN1CCCCc2ccc(C(=O)CCC3CCN(Cc4ccccc4)CC3)cc21` the value was 1330 nM; for `CCc1cc(=NCCC2CCN(Cc3ccccc3)CC2)[nH]nc1-c1ccccc1`, 27 nM; for `CCCc1cc(N2CCC=N2)ccc1C(=O)ON=C(N)c1ccc(C(F)(F)F)cc1`, 13000 nM. Next, `O=C(NCCCCCCNc1c2c(nc3cc(Cl)ccc13)CCCC2)c1c[nH]c2ccccc12`: 33 nM. With `Clc1ccc2c(NCCCCCCNc3c4c(nc5cc(Cl)ccc35)CCCC4)c3c(nc2c1)CCCC3`, half-maximal inhibition (IC50) was put at 0.6 nM. In turn, `CCN1CCC2c3cc(OC(=O)NC)ccc3CC21` (stereo not drawn) came in with an IC50 of 253 nM.

Consider `Nc1c2c(nc3ccccc13)-c1cc(Br)ccc1CC2`, for which inhibition was half-maximal at 144000 nM (IC50). `c1ccc(-c2cc(-c3ccccc3)c(NCCN3CCOCC3)nn2)cc1` returned an IC50 of 260000 nM. Against the preceding compound, the IC50 is about 1.8-fold higher. As for `O=C(CCC1CCN(Cc2ccccc2F)CC1)c1ccc2c(c1)CCN2`, the IC50 amounted to 43 nM. For the compound `CCN1CC[C@@]2(C)c3cc(OC(=O)Nc4ccccc4)ccc3C[C@@H]12`, 176 nM corresponded to half-maximal inhibition (IC50). `O=C1c2ccc([N+](=O)[O-])cc2C(=O)N1C1CCN(Cc2ccccc2)CC1`: 27000 nM corresponded to half-maximal inhibition (IC50). Compared with the last compound, the IC50 is about 150-fold higher. Next, `CCCCCCCNC(=O)Oc1ccc2c(c1)[C@]1(C)CCN(CC)[C@@H]1C2`: 58 nM; `O=C1Cc2ccccc2C(=O)N1CCC1CCN(Cc2ccccc2)CC1`: 23 nM; `NCCCCCCCCCNc1c2c(nc3ccccc13)CCCC2`: 131 nM.

For the compound `Cc1cc(-c2ccccc2)nnc1NCCC1CCN(Cc2ccccc2)CC1`, the IC50 amounted to 320 nM. Next, `O=C1c2cccc([N+](=O)[O-])c2C(=O)N1CCC1CCN(Cc2ccccc2)CC1`: 9 nM; `c1ccc(NCCCCCCCCCCCCNc2c3c(nc4ccccc24)CCCC3)cc1`: 261 nM.
